According to US11197861B2, “Methods of screening BRaf inhibitors for treating cutaneous reactions” (Lutris Pharma Ltd., priority 2016, dated 2021):

Tested on: MAPK (ERK)
Assay: Activation of MAPK (ERK) in human normal keratinocytes (HEKa), Western blot of phospho-ERK / total ERK
Assay type: cell-based
Settings: human primary keratinocytes (HEKa), 2 hours treatment
Description: Human normal Keratinocyte cells HEKa were seeded in 10 cm dishes (300,000 cells/dish) and incubated overnight at 37° C., 5% CO2. Next morning, the cells were starved for 2 hours and then treated with the various inhibitors (or control treatments) for 2 hours. Post incubation the cells were lyzed with RIPA Buffer and the protein extracts were analyzed by Western-Blot for detection of phospho ERK and total ERK2, by use of suitable antibodies. Untreated and 0.1% DMSO treated cells were used as negative control. Growth factors mix (HKGS) was used as positive control (Gibco CAT #: S0015).
Western Blot: 7.5 μg of total extract was loaded on 10% or 12% acrylamide gels. Following transfer, the membranes were blocked with TBST/5% skim milk and then incubated with Mouse anti phospho ERK (1:1000 in TBST 5% BSA, ON at 4° C.) and goat anti Mouse HRP (1:10,000 in TBST 5% BSA, 1 hour RT). The membranes were exposed using SuperSignal West Pico Chemiluminescent Substrate. The HRP was then inactivated by incubating the membranes for 1 hour with 0.5% Sodium azide. Following washes and ECL exposure in order to ensure absence of signal, the membranes were reblocked for 15 min with TBST/5% skim milk and then incubated with Rabbit anti total ERK2 (1:500 in TBST 5% BSA, ON at 4° C.), goat anti Rabbit HRP (1:5,000 in TBST 5% BSA, 1 hour RT) and finally exposed using the SuperSignal West Pico Chemiluminescent Substrate. The resulting images (films) were scanned and the signal were quantified using ImageJ software. BRaf inhibitors used in the experiments included, C-1, C-15, C-19 C-A or vemurafenib, at concentrations of 0.3 μM; 1 μM or 3 μM. ZM (ZM336372) a c-Raf inhibitor, which serves in the present experiments as a Braf activator and was used as a control.

[1] = increasing amounts 0.3 μM, 1 μM or 3 μM, FIGS. 1-3

Row | SMILES | activation of ERK (increase in relative amount of Phosphorylated ERK) (1 μM, FIGS. 4A-C) | activation of ERK (increase in relative amount of Phosphorylated ERK) [1]
1 | Cc1ccc2c(Nc3ccc(Cl)cc3)nccc2c1Nc1ncccc1-c1ncnc2[nH]cnc12 [C-1] | activation of ERK | activation of ERK
2 | C#Cc1cccc(Nc2nccc3c(Nc4ncccc4-c4cc(NC)ncn4)c(C)ccc23)c1 [C-15] | activation of ERK | activation of ERK
3 | CNc1ncc2cc(-c3c(C)ccc4c(Nc5cc(C(C)(C)C)nn5C)nccc34)ccc2n1 [C-19] | activation of ERK | activation of ERK
4 | CNc1ncc2cc(-c3c(C)ccc4c(Nc5cccc(OC(F)(F)F)c5)nc(C)nc34)ccc2n1 [C-A] | activation of ERK | activation of ERK
5 | Cc1ccc(NC(=O)c2cccc(N(C)C)c2)cc1NC(=O)c1ccc(O)cc1 [ZM 336372] | activation of ERK | activation of ERK
